# Results: ChEMBL document CHEMBL1811859, “Second-generation sulfonamide inhibitors of D-glutamic acid-adding enzyme: activity optimisation with conformationally rigid analogues of D-glutamic acid” (Eur J Med Chem, 2011)
# Assays:
# Bacillus subtilis = test: Antimicrobial activity against Bacillus subtilis ATCC 6633 by broth dilution method; format: functional
# [1] = tested on: Staphylococcus epidermidis; test: Antimicrobial activity against Staphylococcus epidermidis ATCC 12228 by broth dilution method; format: functional
# Escherichia coli [2] = test: Antimicrobial activity against Escherichia coli ATCC 8739 by broth dilution method; format: functional
# Enterococcus faecalis [3] = test: Antimicrobial activity against Enterococcus faecalis ATCC 29212 by broth dilution method; format: functional
# Staphylococcus aureus [4] = test: Antimicrobial activity against methicillin-resistant Staphylococcus aureus PL1 by broth dilution method; format: functional
# Escherichia coli [5] = test: Inhibition of Escherichia coli MurD ligase assessed as residual activity at 500 uM after 30 mins
# Enterococcus faecium = test: Antimicrobial activity against Enterococcus faecium ATCC 19434 by broth dilution method; format: functional
# Proteus mirabilis = test: Antimicrobial activity against Proteus mirabilis ATCC 29936 by broth dilution method; format: functional
# Klebsiella pneumoniae = test: Antimicrobial activity against Klebsiella pneumoniae ATCC 13883 by broth dilution method; format: functional
# Staphylococcus aureus [6] = test: Antimicrobial activity against Staphylococcus aureus ATCC 25923 by broth dilution method; format: functional
# Streptococcus pneumoniae [7] = test: Antimicrobial activity against Streptococcus pneumoniae ATCC 49619 by broth dilution method; format: functional
# Citrobacter freundii = test: Antimicrobial activity against Citrobacter freundii ATCC 8090 by broth dilution method; format: functional
# Listeria innocua = test: Antimicrobial activity against Listeria innocua ATCC 33090 by broth dilution method; format: functional
# Streptococcus pneumoniae [8] = test: Antimicrobial activity against Streptococcus pneumoniae D39 by broth dilution method; format: functional
# Listeria monocytogenes = test: Antimicrobial activity against Listeria monocytogenes ATCC 14780 by broth dilution method; format: functional
# Enterococcus faecalis [9] = test: Antimicrobial activity against Enterococcus faecalis ATCC 19433 by broth dilution method; format: functional
# Streptococcus pneumoniae [10] = test: Antimicrobial activity against Streptococcus pneumoniae ATCC 33400 by broth dilution method; format: functional
# Enterococcus hirae = test: Antimicrobial activity against Enterococcus hirae ATCC 9790 by broth dilution method; format: functional
# Staphylococcus aureus [11] = test: Antimicrobial activity against methicillin-resistant Staphylococcus aureus ATCC 43300 by broth dilution method; format: functional
# Pseudomonas aeruginosa = test: Antimicrobial activity against Pseudomonas aeruginosa ATCC 27853 by broth dilution method; format: functional
# Micrococcus luteus = test: Antimicrobial activity against Micrococcus luteus ATCC 9314 by broth dilution method; format: functional
# [12] = Inhibition of Escherichia coli MurD ligase by fluorimetric assay
# [13] = Inhibition of Escherichia coli MurD ligase assessed as addition of D-[3H]glu to UDP-N-acetyl-muramoyl-L-alanine after 30 mins
# [14] = Inhibition of Escherichia coli MurD ligase assessed as addition of D-[3H]glu to UDP-N-acetyl-muramoyl-L-alanine
# Escherichia coli [15] = test: Inhibition of Escherichia coli MurD ligase assessed as residual activity at 1 mM after 30 mins
# [16] = Inhibition of Escherichia coli MurD ligase after 10 mins using malachite green reagent by colorimetry
# [17] = Inhibition of Escherichia coli MurD ligase
Structure (SMILES),MIC (Bacillus subtilis) [µg/mL],MIC [1] [µg/mL],MIC (Escherichia coli [2]) [µg/mL],MIC (Enterococcus faecalis [3]) [µg/mL],MIC (Staphylococcus aureus [4]) [µg/mL],Activity (Escherichia coli [5]) [%],MIC (Enterococcus faecium) [µg/mL],MIC (Proteus mirabilis) [µg/mL],MIC (Klebsiella pneumoniae) [µg/mL],MIC (Staphylococcus aureus [6]) [µg/mL],MIC (Streptococcus pneumoniae [7]) [µg/mL],MIC (Citrobacter freundii) [µg/mL],MIC (Listeria innocua) [µg/mL],MIC (Streptococcus pneumoniae [8]) [µg/mL],MIC (Listeria monocytogenes) [µg/mL],MIC (Enterococcus faecalis [9]) [µg/mL],MIC (Streptococcus pneumoniae [10]) [µg/mL],MIC (Enterococcus hirae) [µg/mL],MIC (Staphylococcus aureus [11]) [µg/mL],MIC (Pseudomonas aeruginosa) [µg/mL],also measured
CCCCOc1ccc2cc(S(=O)(=O)Nc3cc(C(=O)O)cc(C(=O)O)c3)ccc2c1,> 512,> 512,> 512,> 512,> 512,70,> 512,> 512,> 512,> 512,> 512,> 512,> 512,> 512,> 512,> 512,> 512,> 512,> 512,> 512,MIC (Micrococcus luteus): > 512 µg/mL
Cc1ccc(C(=O)O)cc1NC(=O)CSc1nnc(N)s1,–,–,–,–,–,–,–,–,–,–,–,–,–,–,–,–,–,–,–,–,IC50 [12]: 105 µM
N#Cc1ccc(COc2ccc3cc(S(=O)(=O)Nc4ccc(O)cc4C(=O)O)ccc3c2)c(F)c1,> 512,> 512,> 512,> 512,> 512,3,> 512,> 512,> 512,> 512,> 512,> 512,> 512,> 512,> 512,> 512,> 512,> 512,> 512,> 512,IC50 [13]: 46 µM; Ki [13]: 32 µM; MIC (Micrococcus luteus): > 512 µg/mL
CCCCOc1ccc2cc(S(=O)(=O)Nc3ccc(CC(=O)O)cc3)ccc2c1,512,256,> 512,256,256,97,512,> 512,> 512,256,> 512,> 512,> 512,> 512,> 512,512,> 512,512,256,> 512,MIC (Micrococcus luteus): 512 µg/mL
CC(=O)N[C@H]1C(OP(=O)(O)O)O[C@H](CO)[C@@H](O)[C@@H]1O[C@H](C)C(=O)N[C@@H](C)P(=O)(O)CC(CCC(=O)O)C(=O)O (stereo partly drawn),–,–,–,–,–,–,–,–,–,–,–,–,–,–,–,–,–,–,–,–,IC50 [14]: 0.02 µM
CCCCOc1ccc2cc(S(=O)(=O)Nc3cc(C(=O)O)ccc3C(=O)O)ccc2c1,> 512,> 512,> 512,> 512,> 512,78,> 512,> 512,> 512,> 512,> 512,> 512,> 512,> 512,> 512,> 512,> 512,> 512,> 512,> 512,MIC (Micrococcus luteus): > 512 µg/mL
CCCCOc1ccc2cc(S(=O)(=O)N3CCC(C(=O)O)CC3)ccc2c1,–,–,–,–,–,97,–,–,–,–,–,–,–,–,–,–,–,–,–,–,–
N#Cc1ccc(COc2ccc3cc(S(=O)(=O)N4CCC(C(=O)O)CC4)ccc3c2)c(F)c1,–,–,–,–,–,94,–,–,–,–,–,–,–,–,–,–,–,–,–,–,–
N#Cc1ccc(COc2ccc3cc(S(=O)(=O)Nc4ccc(CC(=O)O)cc4)ccc3c2)c(F)c1,> 512,> 512,> 512,> 512,> 512,64,> 512,> 512,> 512,> 512,64,> 512,> 512,64,> 512,> 512,32,> 512,> 512,> 512,MIC (Micrococcus luteus): > 512 µg/mL
CCCCOc1ccc2cc(S(=O)(=O)Nc3ccc(C(=O)O)cc3C(=O)O)ccc2c1,> 512,> 512,> 512,> 512,> 512,–,> 512,> 512,> 512,> 512,> 512,> 512,> 512,> 512,> 512,> 512,> 512,> 512,> 512,> 512,IC50 [13]: 127 µM; Ki [13]: 87 µM; Activity (Escherichia coli [15]): 8%; MIC (Micrococcus luteus): > 512 µg/mL
C[C@@H]1NC(=O)[C@H](CO)NC(=O)CCCCCC[C@H](C(=O)O)CC1=O,–,–,–,–,–,–,–,–,–,–,–,–,–,–,–,–,–,–,–,–,IC50 [16]: 0.7 µM
O=C(N/N=C/c1ccc(O)c(O)c1O)c1n[nH]c2ccccc12,–,–,–,–,–,–,–,–,–,–,–,–,–,–,–,–,–,–,–,–,IC50 [17]: 324 µM
CCCCOc1ccc2cc(S(=O)(=O)N[C@@H](CCC(=O)O)C(=O)O)ccc2c1,–,–,–,–,–,–,–,–,–,–,–,–,–,–,–,–,–,–,–,–,IC50 [17]: 710 µM
CCCCOc1ccc2cc(S(=O)(=O)Nc3ccc(O)cc3C(=O)O)ccc2c1,> 512,> 512,> 512,256,> 512,76,256,> 512,> 512,> 512,64,> 512,> 512,64,> 512,> 512,32,256,> 512,> 512,MIC (Micrococcus luteus): 256 µg/mL
